Publication PMC8301783, “Pitfalls of NMDA Receptor Modulation by Neuroactive Steroids. The Effect of Positive and Negative Modulation of NMDA Receptors in an Animal Model of Schizophrenia” (Biomolecules, 2021)

Biological target: T1, GABAA receptor (GABAAR)
T1 construct: native receptors in rat cerebral cortex membrane homogenates
Experiment: […]TBPS radioligand displacement, rat cortex membranes
Type: binding

## CC(=O)[C@H]1CC[C@H]2[C@@H]3CC[C@@H]4C[C@H](OC(=O)[C@@H](N)CCC(=O)O)CC[C@]4(C)[C@H]3CC[C@]12C [PA-Glu, pregnanolone glutamate]
  IC50: 7.5 µM
